The text below walks through data of PMC6261607, “Novel high–throughput myofibroblast assays identify agonists with therapeutic potential in pulmonary fibrosis that act via EP2 and EP4 receptors” (PLoS ONE, 2018).

SMILES strings stand for the structures. Where two headings read alike, the source gives them in different places.

Assay [1] deals with α–SMA protein in TGF–β1–induced NHLF myofibroblasts. The assay is described as follows: MS/MS α–SMA, NHLF myofibroblast reversal assay. Format: cell-based, human. Here is the method: (§1) Cell culture medium was removed and cells were lysed on ice by adding 5 μl / well of pre–cooled protein extraction buffer containing 10 mM Tris–HCl (pH 8.0), 6 M urea and 2 M thiourea and shaking on ice on a plate shaker at 600 rpm for 30 min.
(§2) Cell lysate was transferred to a 96–well polypropylene–PCR–plate. 15 μl / well denaturation buffer (6 M urea, 50 mM ammonium bicarbonate) and 2 μl / well of 50 mM TCEP were added and samples were denatured for 1 h at 60°C using the Veriti 96–well Fast Thermal Cycler System (Applied Biosystem) with a heated lid. Plates were allowed to cool to RT. Subsequently, 2 μl of 100 mM iodoacetamide were added per well to derivatize cysteine residues. Plates were then sealed and vortexed for 2 min in the dark and incubated for 30 min at 37°C in a thermal cycler with a heated lid. 90 μl of 50 mM ammonium bicarbonate pH 7.8 were added, followed by the addition of 10 μl of trypsin at 0.02 μg / ml. Samples were trypsin–digested overnight at 37°C in a thermal cycler with heated lid. […] Samples were desalted under vacuum using an Oasis HLB 96–well (30 μm particle size, 5 mg sorbent / well) reverse phase cartridge according to the manufacturer’s instructions and eluted with 170 μl of 90% acetonitrile, 0.1% formic acid. Samples were dried down with a flow of nitrogen at 40°C, left to cool to RT and re–suspended in 40 μl 5% acetonitrile, 0.1% formic acid on a plate shaker set to 1400 rpm for 5 min. Plates were centrifuged at 4,000 rpm for 10 min and 2 times 12 μl / well of supernatant were transferred into separate 96–well plates (Greiner Bio–One), sealed and stored at 4°C until analyzed by MS / MS.
(§3) Surrogate tryptic peptides were chosen for detection of COL1 (COL1A1), α–SMA (ACTA) and tubulin (TBA1A1) and crude synthetic peptides were purchased from Thermo Fischer. After several rounds of optimization following standard workflows, […] (COL1 / COL1A1), […] (α–SMA / ACTA) and […] LC–MS / MS analysis was performed on a RapidFire™ RF360 system (Agilent Technologies) coupled to an API 5500 (ABSciex) with positive ion electrospray ionization. […] Detection was performed using multiple reaction monitoring (MRM) mode to monitor parent⟶product ion transitions (m / z). […] The source parameters were curtain gas (CUR) nitrogen: 20 psig; collision gas (CAD): 7 psig; ion source gas 1: 50.0 psig; ion source gas 2: 50.0 psig; ion spray voltage (IS): 5500 V; turbo heater temperature (TEM): 600°C; entrance potential (EP): 10V. Peak areas for COL1A1 and ACTA were normalized by dividing by TBA1A peak area.
(§4) To identify compounds with potential to revert differentiated myofibroblasts to fibroblasts the assay procedures were modified. After 24 h starvation, NHLF cells were stimulated with 5 ng / ml TGF–β1 for 24 h. At t = 24 h TGF–β1 was removed and either vehicle (DMSO) or compounds were added and incubated with the cells for a further 72 h.

For assay [2], the system named is COL1 protein in TGF–β1–induced NHLF myofibroblasts. The assay is described as follows: MS/MS COL1, NHLF myofibroblast reversal assay. It is filed as cell-based, human. The procedure: as §1, §2, §3, §4
The test system of assay [3] is TGF–β1–induced NHLF myofibroblasts. In words: cells. Format: cell-based. Particulars: reversal assay: 24 h 5 ng/ml TGF–β1, washed, then compound; impedance data at t = 20 h. Here is the method: (§5) To measure dynamic cell shape and adhesion changes during fibrotic transdifferentiation, NHLF were seeded at a density of 20,000 cells per well in FGM–2 growth medium (Lonza) containing 100 units / ml of penicillin and 100 μg / ml of streptomycin into E–plates with continued impedance signal measurement (xCELLigence system, Roche Applied Science). After overnight growth, the medium was exchanged for FBM (Lonza) supplemented with 100 units / ml of penicillin and 100 μg / ml of streptomycin and 0.1% faf BSA and cells were starved for 32 h. Compound dilution series were added and myofibroblast transition was induced by adding TGF–β1 at a concentration of 5 ng / ml, followed by continued impedance sampling for up to 48 h. For data analysis, impedance raw traces were normalized to the time point of compound addition and the baseline response (DMSO, non–TGF–β1 treated cells) was subtracted. In some cases, impedance values at defined time points were used to generate concentration–response curves to determine compound potency and efficacy using GraphPad Prism software version 7 (GraphPad Software Inc).
as §4

The test system of assay [4] is normal human lung fibroblasts (NHLF). The assay is described as follows: Impedance measurement of TGF–β1–induced myofibroblast transition (IPQA), standard assay. The conditions noted are these: 5 ng/ml TGF–β1, compound added with TGF–β1, impedance at t = 20 h post TGF–β1, mean ± SD, read-out: Impedance IC50. Format: cell-based. Here is the method:
as §5

Assay [5] shares this test system. In words: Phenotypic high-content assay (HCA) of TGF–β1–induced fibroblast–to–myofibroblast differentiation. Format: cell-based. Particulars: NHLF, 5 ng/ml TGF–β1 for 48 h, compound added with TGF–β1; mean ± SD; read-out: HCA IC50. In outline:
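NHLF starved 24 h in serum-free basal medium with 0.1% BSA, then given compounds together with 5 ng/ml TGF-β1 for 48 h (0.6% DMSO). Methanol-fixed cells imaged for DAPI, α-SMA and FN; an SVM trained on ±TGF-β1 controls classified each cell, giving per-well % myofibroblast differentiation and nuclear counts.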

For assay [6], the system named is rat lung myofibroblasts (RLMyoF). In words: Impedance in primary myofibroblasts from fibrotic rat lungs. It is filed as cell-based, Wistar rat. Particulars: S8 Fig.
Experimental: Isolation of fibroblasts from the right middle lung lobe of bleomycin–instilled 20–month old Wistar rats. […] On day 0, rats (n = 3) were anesthetized with isoflurane and instilled intra–tracheally with 315 mg of bleomycin sulfate (Baxter) in a volume of 210 μl followed by 210 μl of air to equally distribute the substance in the lung. On day 28, rats were euthanized using isoflurane (5%), exsanguinated and right lung middle lobes (RML) were collected in a sterile culture dish on ice in Dulbecco's Modified Eagle's Medium (DMEM) / F12 (1:1, Thermo Fisher), minced, washed 3 times with DMEM / F12 medium and digested with 0.1% collagenase (Collagenase II–S: Invitrogen) and 15 μg / ml DNase (DNase I, Sigma) in DMEM / F12 medium in a shaking water bath at 37°C for 15 min. Digests were separated by gravity and the supernatant was transferred to a new vial supplemented with 4 volumes of ice–cold starter medium consisting of DMEM / F12 (1:1), 10% (v / v) fetal bovine serum (PAA), 1% (v / v) penicillin / streptomycin 100 U / 100 μg / ml (Thermo Fisher), and insulin / transferrin / sodium selenite (Thermo Fisher). Then, the cell suspension was passed through a cell strainer by centrifugation at 1600 rpm at 4°C for 10 min. The pelleted cells were resuspended in pre–warmed (37°C) starter medium and seeded in a cell culture dish. After 60 minutes, the medium was replaced by new starter medium. After 24 hours, the medium was exchanged for DMEM / F12 to which 10% (v / v) fetal bovine serum and 1% penicillin / streptomycin was added.
For assay [7], the system named is COL1 protein in NHLF cells. In words: RapidFire MS/MS quantification of COL1 (IPQA), standard assay. Format: cell-based, human. Particulars: NHLF, 5 ng/ml TGF–β1, lysed 48 h after TGF–β1, normalized to tubulin; mean ± SD; read-out: MS / MS COL1 IC50. The procedure:
as §1, §2, §3

Assay [8] concerns α–SMA protein in NHLF cells. In words: RapidFire MS/MS quantification of α–SMA (IPQA), standard assay. It is filed as cell-based, human. The conditions noted are these: NHLF, 5 ng/ml TGF–β1, lysed 48 h after TGF–β1, normalized to tubulin; mean ± SD; read-out: MS / MS α–SMA IC50. The procedure:
as §1, §2, §3

In assay [9] the test system is normal human lung fibroblasts (NHLF). In words: Nuclear count in the HCA, standard assay. The conditions noted are these: standard HCA, NHLF, 5 ng/ml TGF–β1, 48 h; read-out: Nuclear count IC50. Format: cell-based. The procedure:
The plate was washed 3 times with starvation medium, e.g. fibroblast basal medium (FBM, Lonza) supplemented with 0.1% faf BSA, 100 units / ml of penicillin and 100 μg / ml of streptomycin and 250 ng / ml amphotericin B, and then starved for 24 h in 30 μl volume. NHLF were differentiated into myofibroblasts by incubation with 5 ng / ml TGF–β1 (from a stock of 20 μg / ml in 4 mM HCl, 1 mg / ml BSA) for 48 h. Compounds were prepared as 5x stocks in starvation medium and added to the starved cells to a final 1x concentration concomitant with TGF–β1 addition. The final DMSO concentration in the assay was 0.6% in all wells. 48 h after TGF–β1 addition, the medium was removed and the cells were fixed in methanol for 10 min at room temperature (RT). After fixation, cells were washed 3 times with 1 x PBS and either stored at 4°C for up to 3 days or further processed. […] Images were acquired on the Opera Phenix confocal high–content screening system (Perkin Elmer) using the 20–x water immersion lens.
DAPI stained nuclei were used to identify cells. α–SMA and FN regions were then identified and mapped to the corresponding nuclei for background correction, cell segmentation and cell feature computation to identify, classify and weigh over 400 features per cell. The computed features (S1 Table) comprise, but are not limited to, granularity, intensity, texture, area, shape and solidity of a cell in both α–SMA–and FN–expressing regions. The 0% compound effect (5 ng / ml TGF–β1) and the 100% compound effect (0 ng / ml TGF–β1) controls, were used to train and validate a support vector machine (SVM), a supervised learning model with associated learning algorithm that, once successfully validated, was applied to every cell in every well of the assayed microtiter plate. The SVM allowed autonomous weighting and classification of the characteristics and thus enabled the classifier to decide which characteristics were most relevant for the differentiation of the cell types. […] The classification of each cell was aggregated to a cell type ratio per well, represented as the computed percentage effect value per well indicative of the degree of myofibroblast differentiation. E.g. 100% equals complete myofibroblast differentiation, 0% indicates a pure fibroblast population without any signs of differentiation.

As to `C=C[C@@]1(C)CC(=O)[C@]2(O)[C@@]3(C)[C@@H](O)CCC(C)(C)[C@@H]3[C@H](O)[C@H](OC(C)=O)[C@@]2(C)O1` [Forskolin], the IC50 worked out at 5120 nM in [1] (Homo sapiens, NHLF pre–stimulated 24 h with 5 ng/ml TGF–β1, representative experiment, S7 Fig D, read-out: IC50, reversal of α–SMA (curve of a single experiment)) and 1720 nM in assay [2] (Homo sapiens, Col1, NHLF pre–stimulated 24 h with 5 ng/ml TGF–β1, representative experiment, S7 Fig E, read-out: IC50, reversal of COL1 (curve of a single experiment)).

For the compound `CCn1c(-c2nonc2N)nc2cnc(Oc3cccc(NC(=O)c4ccc(OCCN5CCOCC5)cc4)c3)cc21` [GSK–269962], the IC50 in [3] is > 10000 nM; in [4], 1010 nM; in assay [5], 240 ± 270 nM; in assay [6] (read-out: RLMyoF impedance IC50 (3 h), impedance at 3 h), 11 nM; in [6] (read-out: RLMyoF impedance IC50 (20 h), impedance at 20 h), 133 nM; in assay [1] (reversal assay: 24 h 5 ng/ml TGF–β1, washed, 72 h compound, normalized to tubulin, read-out: MS / MS α–SMA IC50), 35 nM. The IC50 in assay [7] is 3100 nM; in assay [2] (reversal assay: 24 h 5 ng/ml TGF–β1, washed, 72 h compound, normalized to tubulin, read-out: MS / MS COL1 IC50), 537 nM; in assay [8], 22 ± 1 nM; in [9] it was > 50000 nM.
